{
  "source": "patent US7361633B2",
  "about": "“Screening method and anti-tumor drug candidate obtained therefrom” (Ardana Bioscience Limited, priority 2002, dated 2008)",
  "key": {"[1]": {"test_system": "PTX-sensitive/Gαi-dependent MAPK isoform activation", "assay": "PTX-sensitive/Gαi-dependent MAPK isoform activation (data not shown)", "format": "cell-based"}, "[2]": {"test_system": "androgen-resistant tumor cells", "details": "compared with androgen-dependent prostate cancers; Jungwirth et al; cited from earlier work"}, "[3]": {"test_system": "human JEG-3 choriocarcinoma cells", "assay": "Anti-proliferative effect on JEG-3 cells, viable cell count after 5 days", "format": "cell-based", "details": "5 days continuous treatment, trypan blue exclusion", "procedure": "(§1) Low cell density JEG-3 cell subcultures were treated for 5 days continuously with the indicated doses of GnRH I (a), GnRH II (b), antagonist 135-18 (c) or antagonist 135-25 (d) added directly to Dulbecco's modified Eagles medium supplemented with 10% FCS, glutamine and penicillin/streptomycin. Ligands were replenished every 24 h. At the end of the stimulation period cells were removed from the growth plates with trypsin and mixed with trypan blue dye (enters non-viable cells). Only viable cells were therefore counted using a haemocytometer in quadruplicate for each ligand dose. The bars in each histogram represent the mean±s.e. mean of n=4 experiments.\n(§2) Each cell type was plated at an initial minimal confluency (10-20%) to allow for 5 days of normal continual cell growth that would not result in 100% cell confluency by day 5. Each ligand was incubated, in triplicate for every experimental concentration, with the cell monolayers for five days with replacement of the ligand every 12 h. At the end of the stimulation period the number of viable cells was estimated by their capacity to prevent uptake of Trypan Blue stain."}, "[4]": {"test_system": "HEK293 cells stably expressing the Type I GnRHR (SCL60)", "assay": "Anti-proliferative effect on SCL60 cells, viable cell count after 5 days", "format": "cell-based, human", "details": "5 days continuous treatment, trypan blue exclusion", "procedure": "An identical methodology of measuring cell growth was employed as in FIG. 1.\nas §2\nWe further investigated the nature of the ligand-receptor specificity of the anti-proliferative effects of GnRH receptor systems by studying our ligand panel effects upon a model cell background, i.e. SCL60 HEK293 cells stably expressing the rat Type I GnRHR. […] We attribute this greater effect of the GnRHR ligands upon the SCL60 cells to the much greater level of receptor expression in the SCL60 cells."}, "ERK1/2 [5]": {"test_system": "ERK1/2", "assay": "ERK1/2 phosphorylation immunoblot in JEG-3 cells", "format": "cell-based, human", "details": "100 nM, 10 minutes"}, "ERK1/2 [6]": {"test_system": "ERK1/2", "assay": "ERK1/2 phosphorylation immunoblot in BPH-1 cells", "format": "cell-based, human", "details": "FIG. 5 panel c", "from_the_text": "The panel depicts a representative anti-phospho-ERK1/2 w-c lysate immunoblot of stimulated BPH-1 cell extracts. […] Each bar of the histogram represents the mean±s.e. mean of three to four experimental replicates. […] Panel c) depicts the extent of ERK1/2 activation in BPH-1 cells induced by stimulation with GnRH I, II, Ant 135-25 and Ant 135-18. […] Each bar of the histogram represents the mean± s.e. mean of three to four experimental replicates."}, "PLC-β": {"test_system": "PLC-β", "assay": "Inositol phosphate accumulation in BPH-1 cells", "format": "cell-based, human", "procedure": "BPH-1 cells were pre-incubated with ^3H-myoinositol (1 μCi/ml) for 48 h prior to ligand stimulation (60 minutes). Ligand stimulated inositol phosphate production was measured in the presence of 10 mM LiCl. […] IP accumulation can be used as a read out/marker for Gαq activation since the activation of PLCβ is PTX-resistant."}, "[7]": {"target": "T1, marmoset Type II GnRH receptor (Callithrix jacchus, UniProt Q95MG6)", "T1 construct": "expressed in transfected cells", "T1 sequence (Q95MG6 1-380)": "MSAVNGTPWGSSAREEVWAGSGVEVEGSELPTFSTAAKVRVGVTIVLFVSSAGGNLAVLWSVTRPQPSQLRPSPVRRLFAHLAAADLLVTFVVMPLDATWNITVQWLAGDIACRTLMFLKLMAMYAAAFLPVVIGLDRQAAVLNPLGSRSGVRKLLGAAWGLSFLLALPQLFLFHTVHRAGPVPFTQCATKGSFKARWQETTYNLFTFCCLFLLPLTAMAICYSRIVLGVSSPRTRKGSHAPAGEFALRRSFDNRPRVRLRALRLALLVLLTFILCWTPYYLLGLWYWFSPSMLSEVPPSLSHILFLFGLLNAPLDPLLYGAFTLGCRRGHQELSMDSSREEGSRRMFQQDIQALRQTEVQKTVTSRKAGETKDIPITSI", "assay": "Inositol phosphate accumulation in αT4-II cells", "format": "cell-based", "details": "GnRH II 10 nM", "procedure": "The histograms in panels a and b represent inositol phosphate accumulation data from HEK293 cells stably expressing the Type I GnRH receptor only (SCL60). […] In panels c and d, the liberated inositol phosphates generated were measured in the proto-gonadotrope cells (αT4) stably expressing the marmoset Type II GnRH receptor (designated αT4-II).\nThe ability of the four major agents under study at activating ectopically expressed Type I or Type II GnRHR were tested (FIG. 12). The classical signal transduction cascade activated by GnRHR stimulation is the Gαq-PLC-β cascade. Both Type I and II receptor can stimulate the Gαq-PLC type-G-protein and activate PLC-β which cleaves phosphatidylinositol bisphosphate (PIP2) into inositol trisphosphate (IP3), other lower inositol phosphates (IPn) and diacylglycerol (DAG). The major function of IP3 is to elevate intracellular Ca^2+ while DAG causes the activation of specific PKC (protein kinase C) isoforms.\nPanels a and b of FIG. 12 depict the generation of free cytoplasmic ^3H-myo-inositols on the plasma membranes of HEK293 cells expressing the Type I GnRHR and of αT4 gonadotropes expressing the marmoset Type II GnRHR. Prior to agonist stimulation the respective cells were incubated in inositol-free growth media supplemented with 1 μCi/ml ^3H-myoinositol for 48 h. G protein coupled receptor (GPCR)-induced activation of PLC-β results in the cleavage of PIP2 (incorporating tritium ^3H) into free lower inositol phosphates (IPns)."}, "[8]": {"test_system": "human benign prostate hyperplastic (BPH-1) cells", "assay": "Anti-proliferative effect on BPH-1 cells, viable cell count after 5 days", "format": "cell-based", "details": "5 days continuous treatment, trypan blue exclusion", "procedure": "as §1, with “density BPH-1” for “density JEG-3”, “(b), Ant” for “(b), antagonist”, “or Ant” for “or antagonist”, “to RPMI 1640” for “to Dulbecco's modified Eagles”, “removed form” for “removed from”, “plates by” for “plates with”\nas §2\nEmploying an identical growth and stimulation methodology to that described in the previous paragraph and in FIG. 1 we exposed the hyperplastic cell line, BPH-1, to the same panel of GnRH ligands and antagonistic analogues (FIG. 2). Reminiscent of FIG. 1 both endogenous GnRH agonists exert a similar mode of action with respect to their dose-dependent inhibition of BPH-1 cell growth over the five day stimulation period."}},
  "note": "“Also recorded” adds a separate entry of the source. Square brackets hold non-standard residues; d marks the D form. Peptide text beside a SMILES is read from it. dPhe(4-Cl) = N[C@H](Cc1ccc(Cl)cc1)C(=O)O; d2Nal = N[C@H](Cc1ccc2ccccc2c1)C(=O)O; dCit = NC(=O)NCCC[C@@H](N)C(=O)O; d3Pal = N[C@H](Cc1cccnc1)C(=O)O; pGlu = O=C1CC[C@@H](C(=O)O)N1",
  "data": [
    {"compound": "CC(=O)N[C@H](Cc1ccc2ccccc2c1)C(=O)N[C@H](Cc1ccc(Cl)cc1)C(=O)N[C@H](Cc1cccnc1)C(=O)N[C@@H](CO)C(=O)N[C@@H](Cc1ccc(O)cc1)C(=O)N[C@H](CCCNC(N)=O)C(=O)N[C@@H](CC(C)C)C(=O)N[C@@H](CCCNC(=N)N)C(=O)N1CCC[C@H]1C(=O)N[C@H](C)C(N)=O", "note": "[Cetrorelix] (Ac-[d2Nal][dPhe(4-Cl)][d3Pal]SY[dCit]LRP[dA]-NH2)", "values": [
      {"measurement": "potency at stimulating PTX-sensitive/Gαi-dependent MAPK isoform activation", "setting": "[1]", "result": "significantly less potent than Ant 135-25"},
      {"measurement": "doses required to attenuate growth of androgen-resistant tumor cells", "setting": "[2]", "result": "considerably higher doses"}
    ]},
    {"compound": "GnRH II: A second form of GnRH, identified in the mid-brain of many vertebrates ([pGlu]HWSHGWYPG-NH2; ends and bridges not checked; UniProt O43555 24-33, looked up)", "values": [
      {"measurement": "anti-proliferative effect (viable cell number)", "setting": "[3]", "result": "potent and dose-dependent anti-proliferative effect; also recorded: clear dose-response relationships for the inhibition of cellular growth"},
      {"measurement": "anti-proliferative effect (viable cell number)", "setting": "[4]", "result": "greater anti-proliferative efficacy; also recorded: less potent than GnRH I at arresting the SCL60 cell growth"},
      {"measurement": "extent of ERK1/2 phosphorylation (activation)", "setting": "ERK1/2 [5]", "result": "less effective"},
      {"measurement": "extent of ERK1/2 activation", "setting": "ERK1/2 [6]", "result": "A similar pattern to JEG-3 of ligand activation"},
      {"measurement": "inositol phosphate accumulation", "setting": "PLC-β; 60 minutes, 10 mM LiCl, doses up to 50 μM", "result": "poor activity; also recorded: small capacity to induce inositol phosphate accumulation"},
      {"measurement": "agonistic activity: liberated inositol phosphates at marmoset Type II GnRH receptor", "setting": "[7]", "result": "yields an increase in free tritiated inositol phosphates; also recorded: results in a similar action to GnRH I upon the SCL60 cells"}
    ]},
    {"compound": "lysophosohatidic acid [LPA]", "values": [
      {"measurement": "anti-proliferative effect (viable cell number)", "setting": "[3]", "result": "failed to significantly attenuate the cell growth"},
      {"measurement": "anti-proliferative effect (viable cell number)", "setting": "[8]", "result": "failed to significantly attenuate the cell growth"},
      {"measurement": "effect of pertussis toxin pre-incubation on induced inositol phosphate accumulation", "setting": "PLC-β; PTX 200 ng/ml 16 h, GnRH I 50 μM", "result": "insensitive to PTX pre-incubation; also recorded: completely insensitive to the pertussis toxin"}
    ]}
  ]
}
